Broadly, the melting point is the temperature, or range, at which the solid turns liquid.

We go through 32 compounds from patent US7256204B2, “Amine compounds, their production and use” (Takeda Pharmaceutical Company Limited, priority 1997, dated 2007).

SMILES strings stand for the structures. Where a name gives a salt, the structure may show the parent alone.

One data set concerns Aβ1-40 production and/or secretion in human neuroblastoma IMR-32 cells. Kind of data set: Inhibition of amyloid-β protein production in IMR-32 cells, EIA for Aβ1-40. As to conditions: test compound 10 μM, 24 hours incubation, effect to inhibit production and/or secretion as percentage relative to the control. Format: cell-based. Here is the method: (§1) Compounds of the present invention were tested for effect of inhibiting amyloid-β protein production in human neuroblastoma IMR-32 cells. Herein referred to were references, Science, 264, 1336 (1994) and Biochemistry, 34, 10272 (1995), etc.
(§2) IMR-32 cells were cultivated in a flask (Falcon, 750 ml) containing 10% FCS/DMEM medium, in an atmosphere of 10% CO2/90% air, at 37° C. to be in confluence. The cultivated cells were seeded into a 48-well plate in a density of 2.5×10^5 cells/well, and incubated therein for 3 days under the same condition as above. Then, the culture medium was removed through suction.
(§3) A dimethylformamide (DMF) solution containing a test compound was dissolved in 0.5 ml of 0.5% BSA/DMEM, and added to the plate, and the cells were incubated for further 24 hours. As the control, the same volume of DMF but not containing the test compound was dissolved in 0.5 ml of 0.5% BSA/DMEM, and added to the plate. […]
(§4) The plate was washed three times with PBS, and 100 μl of an HRP-labeled secondary antibody (BA-27 antibody or BC-05 antibody labeled with HRP, horseradish peroxidase) as dissolved in a buffer for secondary reaction (20 mM phosphate buffer, pH 7.0; 400 mM NaCl; 2 mM EDTA; 1% BSA) was added thereto. […] Then, using a plate reader (MTP-32 Microplate Reader, by Corona Co.), the sample on the plate was subjected to calorimetric determination (at 450 nm). […]
Take `CN(C)CCC1CCc2cc(OCc3ccc(-c4ccccc4)cc3)ccc2C1.Cl` (stereo not shown) [Example 12, 6-(4-Biphenylyl)methoxy-2-[2-(N,N-dimethylamino)ethyl]tetralin hydrochloride]: the “Aβ1–40 (%)” value was found to be 74%.

In a further data set the test system is Aβ1-42 production and/or secretion in human neuroblastoma IMR-32 cells. Kind of data set: Inhibition of amyloid-β protein production in IMR-32 cells, EIA for Aβ1-42. As to conditions: test compound 10 μM, 24 hours incubation, effect to inhibit production and/or secretion as percentage relative to the control. The format is cell-based. As to the method: as §1, §2, §3, §4
As to `CN(C)CCC1CCc2cc(OCc3ccc(-c4ccccc4)cc3)ccc2C1.Cl` (stereo not shown) [Example 12, 6-(4-Biphenylyl)methoxy-2-[2-(N,N-dimethylamino)ethyl]tetralin hydrochloride], the “Aβ1–42 (%)” value came out at 75%.

The subject of a further data set is mouse. Kind of data set: Experiment of acute toxicity, oral administration. The format is in vivo. As to conditions: dose of more than 1000 mg/kg. The text has this: In addition, compounds (I) and (I′) have low toxicity. […] Moreover, compounds (I) and (I′) easily penetrate into the brain following the oral administration.
For `CN(C)CCC1CCc2cc(OCc3ccc(-c4ccccc4)cc3)ccc2C1.Cl` (stereo not shown) [Example 12, 6-(4-Biphenylyl)methoxy-2-[2-(N,N-dimethylamino)ethyl]tetralin hydrochloride], the “acute toxicity (death)” value is on record as “no mouse was dead”.

Tested on in another data set: not given
Assay: not given
Settings: not given
`CC(=O)N(Cc1ccc(-c2ccccc2)cc1)c1ccc2c(c1)CCC(CN(C)C)C2.Cl` (stereo not shown): the melting point fell in the range of 179 to 182 °C.
Consider `Cl.c1ccc(C2CCN(CCC3CCc4cc(OCc5ccc6ccccc6c5)ccc4C3)CC2)cc1` (stereo not shown), for which the melting point is 229 to 234 °C (dec.).
Still for that read-out and setting: under `Cc1ccc(-c2ccc(COc3ccc4c(c3)CCC(CN(C)C)C4)cc2)cc1.Cl` (stereo not shown) stands 226 to 228 °C.
The same measure, in the same setting: the value for `CN(C)CC1CCc2cc(OCc3ccc4ccccc4c3)ccc2C1.Cl` (stereo not shown) was 228 to 229 °C; that for `CN(C)CC1CCc2cc(OCc3ccc(-c4ccc(C=O)cc4)cc3)ccc2C1.Cl` (stereo not shown) was 234 to 235 °C; that for `CSc1ccc(-c2ccc(COc3ccc4c(c3)CCC(CN(C)C)C4)cc2)cc1.Cl` (stereo not shown) was 235 to 237 °C.
`CN(C)CC1CCc2cc(OCc3ccc(-c4ccc(F)cc4)cc3)ccc2C1.Cl` (stereo not shown): the melting point fell in the range of 223 to 234 °C.
Still for that read-out and setting: the value for `CN(C)CC1CCc2cc(OCc3ccc(-c4cccc([N+](=O)[O-])c4)cc3)ccc2C1.Cl` (stereo not shown) was 223 to 234 °C; that for `COc1cccc(-c2ccc(COc3ccc4c(c3)CCC(CN(C)C)C4)cc2)c1.Cl` (stereo not shown) was 207 to 208 °C; that for `COc1ccccc1-c1ccc(COc2ccc3c(c2)CCC(CN(C)C)C3)cc1.Cl` (stereo not shown) was 140 to 141 °C.
Same read-out and setting: the value for `CN(C)CC1CCc2cc(OCc3ccc(-c4cc(C(F)(F)F)cc(C(F)(F)F)c4)cc3)ccc2C1.Cl` (stereo not shown) was 196 to 197 °C; that for `CN(C)CC1CCc2cc(OCc3ccc(-c4ccsc4)cc3)ccc2C1.Cl` (stereo not shown) was 222 to 223 °C.
On the same count and under the same terms, the value for `CN(C)CC1CCc2cc(OCc3ccc(-c4cccs4)cc3)ccc2C1.Cl` (stereo not shown) was 227 to 228 °C; that for `CN(C)CC1CCc2cc(OCc3ccc(-c4ccccc4C#N)cc3)ccc2C1.Cl` (stereo not shown) was 202 to 203 °C; that for `CN(C)CC1CCc2cc(OCc3cccc(-c4ccccc4)c3)ccc2C1.Cl` (stereo not shown) was 186 to 190 °C.
Consider `COc1ccc(-c2cccc(COc3ccc4c(c3)CCC(CN(C)C)C4)c2)cc1.Cl` (stereo not shown), for which the melting point is 182 to 183 °C.
Compound `CN(C)CC1CCc2cc(OCc3cccc(-c4ccc(F)cc4)c3)ccc2C1.Cl` (stereo not shown) gave a melting point of 171 to 172 °C.
The same measure, in the same setting: the value for `CN(C)CC1CCc2cc(OCc3ccccc3-c3ccccc3)ccc2C1.Cl` (stereo not shown) was 173 to 174 °C; that for `COc1ccc(-c2ccccc2COc2ccc3c(c2)CCC(CN(C)C)C3)cc1.Cl` (stereo not shown) was 170 to 171 °C.
`CN(C)CC1CCc2cc(OCc3ccccc3-c3ccc(F)cc3)ccc2C1.Cl` (stereo not shown) came in with a melting point of 172 to 174 °C.
Same read-out and setting: under `Cl.c1ccc(-c2ccc(COc3ccc4c(c3)CCC(CCN3CCCC3)C4)cc2)cc1` (stereo not shown) stands 197 to 199 °C; under `CN(C)CC1CCc2ccc(OCc3ccc(-c4ccccc4)cc3)cc2C1.Cl` (stereo not shown), 232 to 233 °C.
Same read-out and setting: under `Cl.OC1(O)CCN(CCC2CCc3cc(OCc4ccc(-c5ccccc5)cc4)ccc3C2)CC1` (stereo not shown) stands 155 to 156 °C; under `CN(C)CCCCC1CCc2cc(OCc3ccc(-c4ccccc4)cc3)ccc2C1.Cl` (stereo not shown), 175 to 177 °C.
Same read-out and setting: the value for `CN(C)CC1CCc2ccc(OCc3ccc4ccccc4c3)cc2C1.Cl` (stereo not shown) was 201 to 202 °C; that for `CNCC1CCc2cc(OCc3ccc(-c4ccccc4)cc3)ccc2C1.Cl` (stereo not shown) was 189 to 190 °C; that for `Cl.c1ccc2cc(COc3ccc4c(c3)CCC(CN3CCCCC3)C4)ccc2c1` (stereo not shown) was 215 to 218 °C (dec.).
With `CCCN(CCC)CC1CCc2cc(OCc3ccc(-c4ccccc4)cc3)ccc2C1.Cl` (stereo not shown), the melting point lay in the range of 164 to 166 °C.
The same measure, in the same setting: the value for `CN(C)CC1CCc2cc(OCc3ccc(-c4cccnc4)cc3)ccc2C1` (stereo not shown) (as salt: hydrochloride) was 212 to 213 °C; that for `c1ccc(-c2ccc(COc3ccc4c(c3)CCC(CCN3CCC(N5CCCCC5)CC3)C4)cc2)cc1` (stereo not shown) (as salt: hydrochloride) was 288 to 291 °C.
Consider `COc1ccc(-c2ccc(COc3ccc4c(c3)CCC(CCN(C)C)C4)cc2)cc1.Cl` (stereo not shown) [44], for which the melting point fell in the range of 182 to 185 °C.
